{"source": "paper PMC11336141", "key": {"[1]": {"target": "zebrafish sstr2b, Tango construct (zebrafish (Danio rerio))"}, "[2]": {"target": "zebrafish sstr2a, Tango construct (zebrafish (Danio rerio)) (UniProt E7FDL0)"}, "[3]": {"tested_on": "mock (pcDNA) transfected HEK293T cells", "experiment": "GoA dissociation in mock (pcDNA) transfected HEK293T cells", "format": "cell-based", "settings": "Fig. S6B", "quoted_text": "The following protocol was adopted from Masuho et al., 2015[33]. HEK293T cells were seeded onto 6-well plates at a density of 750,000 cells/well. […] 16 to 24 hours post-transfection, HEK293T cells were seeded onto white 96 well plate (PerkinElmer) coated with poly-L-lysine (PLL) at a density of 40,000 cells/well and were allowed to grow overnight. On the day of assay, cells were washed once with phosphate-based saline (PBS) and 80 µL of assay buffer which composed of PBS with 0.5 mM MgCl2 and 0.1% glucose, pH 7.4, were added onto each well. 10 µL of Nluc luciferase substrate furimazine (Promega) were added onto each well and incubated for 3 minutes.\nCrude C. geographus venom was subjected to reversed-phase high performance liquid chromatography (RP-HPLC). Pools consisting of 5 adjacent fractions were then tested for their ability to induce GoA dissociation at the hSSTR2. […] Error bars represent means ± S.E.M. of only one technical experiment in duplicate.\nError bars represent means ± S.E.M. of only one technical experiment in duplicate."}, "plasma glucose": {"tested_on": "plasma glucose", "settings": "compared with GLP-1; cited from earlier work", "excerpt": "Another example of a doppelganger peptide with drug-like properties that targets glucose homeostasis is exendin-4, a glucagon-like peptide-1 (GLP-1) peptide derived from the salivary gland of the Gila monster, Heloderma suspectum. […] Following successful clinical trials, exendin-4 (exenatide) entered the market in 2005 as a first-in-class incretin-mimetic for the treatment of type 2 diabetes (T2D). Since then, several other GLP-1 analogs have been devel ..."}, "perfused rat pancreas": {"tested_on": "perfused rat pancreas", "experiment": "Rat pancreas perfusion, glucagon output", "design": "species or system rat (Wistar)", "settings": "bolus 10 mM L-arginine at end of experiment", "method": "Non-fasted rats were anesthetized by a subcutaneous injection of a balanced mix of hypnorm and midazolam (0.3 mL/100 g body weight). Rats were placed on a heated operating table (37 °C) and the abdomen were opened. Blood vessels were tied off before removing the large and small intestines, the stomach, and the spleen. Then, the kidneys were ligated. […] The perfusion buffer was a modified Krebs-Ringer bicarbonate buffer with 5% (w/v) dextran T-70 (Pharmacosmos, Holbaek, Denmark), 0.1% (w/v) BSA (fraction V), 3.5 mM glucose and 3 mM vamin (Fresenius Kabi, Copenhagen, Denmark), pH adjusted to 7.4. […] Once perfusion of the pancreas was established, a catheter was inserted in the vena portae to collect the venous effluent and the rat was sacrificed by perforation of the diaphragm. After a 30-minute equilibration period, samples were collected every minute for the duration of the protocol. […] 10 mM L-Arginine was used as a positive control. Collected samples were immediately transferred on ice and stored at −20 °C until hormone analysis. Glucagon, insulin, and somatostatin concentrations in venous effluents were quantified by use of validated in-house radioimmunoassays (RIA) as previously described[36] (see below). Statistical analysis were performed where appropriate using one-way analysis of variance (ANOVA) with Dunnett’s post-test. Statistical significance was taken as p < 0.05.\nGlucagon concentration in perfusion samples were measured by a validated in-house RIAs using the 4305 antibody, which reacts with the C-terminal epitope of glucagon[36] and no other cleavage products of pro-glucagon. Insulin concentrations were measured with the 2006 antibody, which measures all isoforms of rat insulin. […] Assay sensitivity was <1 pmol/L ( < 5 pmol/L for insulin detection), allowing reliable measurements of increments of at least 25 fmol/min.\nData analysis were performed in GraphPad Prism (v.9.4.1). Statistical analysis were performed using two-way repeated measure analysis of variance (ANOVA) with Šidák test for isolated islets glucagon secretion and one-way repeated measure ANOVA with Dunnett's test for rat pancreas perfusion experiments. Statistical significance was taken as p < 0.05."}, "human SSTR2 (Gi2)": {"target": "T1, human SSTR2 (Gi2) (Homo sapiens, UniProt P30874)", "T1 construct": "host or cells: HEK293T cells", "T1 sequence (P30874 whole entry)": "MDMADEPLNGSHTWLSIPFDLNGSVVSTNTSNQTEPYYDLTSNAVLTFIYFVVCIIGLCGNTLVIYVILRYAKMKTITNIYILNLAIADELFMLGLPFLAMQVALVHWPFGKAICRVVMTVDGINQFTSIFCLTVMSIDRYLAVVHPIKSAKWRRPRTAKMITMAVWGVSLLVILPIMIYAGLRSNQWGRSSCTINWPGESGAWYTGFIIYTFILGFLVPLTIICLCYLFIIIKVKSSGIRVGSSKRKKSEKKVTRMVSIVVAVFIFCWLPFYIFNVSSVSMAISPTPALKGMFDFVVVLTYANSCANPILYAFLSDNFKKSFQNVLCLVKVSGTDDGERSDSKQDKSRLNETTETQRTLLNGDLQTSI", "experiment": "G protein activation (BRET dissociation) assay, Gi2 at hSSTR2;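 note: percent of the maximal response to the reference somatostatin agonist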", "format": "cell-based", "quoted_text": "(§1) HEK293T cells were seeded onto 6-well plates at a density of 750,000 cells/well. […] 16 to 24 hours post-transfection, HEK293T cells were seeded onto white 96 well plate (PerkinElmer) coated with poly-L-lysine (PLL) at a density of 40,000 cells/well and were allowed to grow overnight. On the day of assay, cells were washed once with phosphate-based saline (PBS) and 80 µL of assay buffer which composed of PBS with 0.5 mM MgCl2 and 0.1% glucose, pH 7.4, were added onto each well. 10 µL of Nluc luciferase substrate furimazine (Promega) were added onto each well and incubated for 3 minutes.\n(§2) The net BRET ratio was determined by subtracting the BRET ratio of drugs with the BRET ratio of vehicle control. Net BRET ratio over time was then plotted using GraphPad Prism (v.9.4.1), and the area-under-curve of net BRET ratio over time course for each ligand concentration tested were then determined and plotted against log(concentration) of drugs tested. […] Concentration response curves were fitted with a 4-parameter logistic Eq. (1) using GraphPad Prism (v.9.4.1):1 Y=Emin+(Emax−Emin)/1+10^logEC50−X×Hillslope"}, "human SSTR2 (Gi1)": {"target": "T2, human SSTR2 (Gi1) (Homo sapiens, UniProt P30874)", "T2 construct": "host or cells: HEK293T cells", "T2 sequence (P30874 whole entry)": "as above", "experiment": "G protein activation (BRET dissociation) assay, Gi1 at hSSTR2;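 note: percent of the maximal response to the reference somatostatin agonist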", "format": "cell-based", "quoted_text": "as §1, §2"}, "human SSTR2 (GoB)": {"target": "T3, human SSTR2 (GoB) (Homo sapiens, UniProt P30874)", "T3 construct": "host or cells: HEK293T cells", "T3 sequence (P30874 whole entry)": "as above", "experiment": "G protein activation (BRET dissociation) assay, GoB at hSSTR2;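 note: percent of the maximal response to the reference somatostatin agonist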", "format": "cell-based", "quoted_text": "as §1, §2"}, "human SSTR2 (Gi3)": {"target": "T4, human SSTR2 (Gi3) (Homo sapiens, UniProt P30874)", "T4 construct": "host or cells: HEK293T cells", "T4 sequence (P30874 whole entry)": "as above", "experiment": "G protein activation (BRET dissociation) assay, Gi3 at hSSTR2;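 note: percent of the maximal response to the reference somatostatin agonist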", "format": "cell-based", "quoted_text": "as §1, §2"}, "human SSTR3": {"target": "T5, human SSTR3 (Homo sapiens, UniProt P32745)", "T5 construct": "Tango cassette (PRESTO-Tango template of Kroeze et al. 2015); Bryan Roth (Addgene) Addgene kit # 1000000068; host or cells: HTLA cells", "T5 sequence (P32745 whole entry)": "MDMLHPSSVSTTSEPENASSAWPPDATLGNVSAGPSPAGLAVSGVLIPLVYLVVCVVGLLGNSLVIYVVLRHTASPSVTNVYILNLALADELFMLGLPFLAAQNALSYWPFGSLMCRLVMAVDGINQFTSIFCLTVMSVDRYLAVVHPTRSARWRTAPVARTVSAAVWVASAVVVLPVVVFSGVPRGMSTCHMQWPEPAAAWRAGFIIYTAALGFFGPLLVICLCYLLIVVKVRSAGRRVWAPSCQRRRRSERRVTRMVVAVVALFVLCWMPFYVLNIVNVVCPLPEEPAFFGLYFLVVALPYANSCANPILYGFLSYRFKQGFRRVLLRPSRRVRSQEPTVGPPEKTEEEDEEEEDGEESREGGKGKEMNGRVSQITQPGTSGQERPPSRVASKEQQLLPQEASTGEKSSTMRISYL", "experiment": "PRESTO-Tango β-arrestin recruitment assay, hSSTR3", "format": "cell-based", "excerpt": "HTLA cells were given by Prof.\nThe assay was done as described in ref. [12]."}, "human SSTR2": {"target": "human SSTR2 (Homo sapiens, UniProt P30874)", "sequence (P30874 whole entry)": "as the sequence (P30874 whole entry) above", "experiment": "PRESTO-Tango β-arrestin recruitment assay, hSSTR2", "settings": "read-out: Emax ± S.E.M., Table S1; % of maximal response relative to SS-14", "quoted_text": "HTLA cells were given by Prof. Bryan Roth (University of North Carolina, Chapel Hill, US) and were maintained in Dulbecco’s modified Eagle’s medium (DMEM) supplemented with 10% Fetal Bovine Serum (FBS) (Biowest) and 100 U/mL penicillin and 100 µg/mL streptomycin at 37 °C in a humidified incubator supplemented with 5% CO2. Constant selective pressure for tTA-dependent luciferase reporter and a β-arrestin 2 tobacco etch virus protease fusion gene were maintained with the addition of 100 µg/mL hygromycin B and 2 µg/ml puromycin (Tango growth medium).\nBriefly, HTLA cells (1 million cells/well) were seeded in 6-well plates in Tango growth medium, and incubated overnight. On day 2, medium was changed to Tango growth medium without hygromycin B and puromycin. Cells were then transfected using Polyfect (Qiagen) according to manufacturer’s protocol. On day 3, 15,000 cells in 40 µL DMEM supplemented with 1% dialyzed FBS (Tango assay medium) per well were seeded in poly-D-lysine-coated white clear-bottom 384 well plates (Corning) and incubated overnight. On day 4, the Tango assay medium was changed and 10 µL of each of the peptide was added at 5x final concentration. The peptides were resuspended in HBSS with 20 mM HEPES, 1 mM of CaCl2, 1 mM of MgCl2, pH adjusted to 7.4 with 1 M NaOH (Tango assay buffer), which was supplemented with 0.1% BSA (Tango ligand buffer). After overnight incubation, on day 5, the medium and the compounds were removed from the cells and 20 µL of 1:20 dilution of BrightGlo (Promega) in Tango assay buffer supplemented with 0.01% pluronic F68 was added to the cells. Plates were incubated for 20 minutes in the dark at room temperature. Luminescence was measured on a Molecular Devices SpectraMax iD5 (Molecular Devices) with each well integrated for 1 second."}, "human SSTR2 (GoA)": {"target": "human SSTR2 (GoA) (Homo sapiens, UniProt P30874)", "sequence (P30874 whole entry)": "as above", "experiment": "G protein activation (BRET dissociation) assay, GoA at hSSTR2;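 note: percent of the maximal response to the reference somatostatin agonist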", "settings": "read-out: Emax ± S.E.M.", "quoted_text": "as §1, §2"}}, "note": "Ends that are not written are not given here.", "data": [{"compound": "Somatostatin-14 (from UniProt P61278 103-116) (peptide)", "values": [{"measurement": "EC50, PRESTO-Tango β-arrestin recruitment assay", "setting": "[1]", "value": 132, "unit": "nM"}, {"measurement": "EC50, PRESTO-Tango β-arrestin recruitment assay", "setting": "[2]", "value": 28.6, "unit": "nM"}]}, {"compound": "SST-14 (AGCKNFFWKTFTSC; not fully specified (bridges); ends and bridges not checked; UniProt P61278 103-116, looked up)", "values": [{"measurement": "pcDNA/GoA response, Mean", "setting": "[3]; at pEC20, data row 1", "value": 0.005611}, {"measurement": "pcDNA/GoA response, Mean", "setting": "[3]; at pEC20, data row 2", "value": 0.02323}, {"measurement": "pcDNA/GoA response, Mean", "setting": "[3]; at pEC20, data row 3", "value": 0.002971}, {"measurement": "pcDNA/GoA response, Mean", "setting": "[3]; at pEC50, data row 1", "value": 0}, {"measurement": "pcDNA/GoA response, Mean", "setting": "[3]; at pEC50, data row 2", "value": 0.0008161}, {"measurement": "pcDNA/GoA response, Mean", "setting": "[3]; at pEC50, data row 3", "value": 0}]}, {"compound": "exendin-4", "values": [{"measurement": "in vivo half-life in words", "setting": "plasma glucose", "value": "significantly longer in vivo half-life than GLP-1"}, {"measurement": "potency in lowering plasma glucose in words", "setting": "plasma glucose", "value": "much greater potency in lowering plasma glucose"}]}, {"compound": "N=C(N)NCCC[C@H](N)C(=O)O", "note": "[L-arginine, reference compound]", "values": [{"measurement": "effect on glucagon levels (positive control)", "setting": "perfused rat pancreas", "value": "revert glucagon levels"}]}, {"compound": "C[C@@H](O)[C@@H]1NC(=O)[C@H](CCCCN)NC(=O)[C@@H](Cc2c[nH]c3ccccc23)NC(=O)[C@H](Cc2ccccc2)NC(=O)[C@@H](NC(=O)[C@H](N)Cc2ccccc2)CSSC[C@@H](C(=O)N[C@H](CO)[C@@H](C)O)NC1=O", "note": "[Octreotide, octreotide, reference compound]", "values": [{"measurement": "Emax", "setting": "human SSTR2 (Gi2)", "value": "64 ± 2.97", "unit": "%"}, {"measurement": "Emax", "setting": "human SSTR2 (Gi1)", "value": "84.2 ± 4.44", "unit": "%"}, {"measurement": "Emax", "setting": "human SSTR2 (GoB)", "value": "101 ± 2.64", "unit": "%"}, {"measurement": "Emax", "setting": "human SSTR2 (Gi3)", "value": "77.5 ± 3.67", "unit": "%"}, {"measurement": "Emax", "setting": "human SSTR3", "value": "108 ± 13.4", "unit": "%"}, {"measurement": "Emax", "setting": "human SSTR2", "value": "94 ± 1.4", "unit": "%"}, {"measurement": "Emax", "setting": "human SSTR2 (GoA)", "value": "96.2 ± 4.77", "unit": "%"}]}]}
